The source made the active and inactive calls.
Experiments:
[1] = biological target: Serine/threonine-protein kinase MRCK beta (Homo sapiens, UniProt Q9Y5S2)
Activin receptor type-2B = Activin receptor type-2B (Homo sapiens, UniProt Q13705)
[2] = biological target: T1, Serine/threonine-protein kinase ULK1 (Homo sapiens, UniProt O75385)
T1 sequence (O75385 whole entry): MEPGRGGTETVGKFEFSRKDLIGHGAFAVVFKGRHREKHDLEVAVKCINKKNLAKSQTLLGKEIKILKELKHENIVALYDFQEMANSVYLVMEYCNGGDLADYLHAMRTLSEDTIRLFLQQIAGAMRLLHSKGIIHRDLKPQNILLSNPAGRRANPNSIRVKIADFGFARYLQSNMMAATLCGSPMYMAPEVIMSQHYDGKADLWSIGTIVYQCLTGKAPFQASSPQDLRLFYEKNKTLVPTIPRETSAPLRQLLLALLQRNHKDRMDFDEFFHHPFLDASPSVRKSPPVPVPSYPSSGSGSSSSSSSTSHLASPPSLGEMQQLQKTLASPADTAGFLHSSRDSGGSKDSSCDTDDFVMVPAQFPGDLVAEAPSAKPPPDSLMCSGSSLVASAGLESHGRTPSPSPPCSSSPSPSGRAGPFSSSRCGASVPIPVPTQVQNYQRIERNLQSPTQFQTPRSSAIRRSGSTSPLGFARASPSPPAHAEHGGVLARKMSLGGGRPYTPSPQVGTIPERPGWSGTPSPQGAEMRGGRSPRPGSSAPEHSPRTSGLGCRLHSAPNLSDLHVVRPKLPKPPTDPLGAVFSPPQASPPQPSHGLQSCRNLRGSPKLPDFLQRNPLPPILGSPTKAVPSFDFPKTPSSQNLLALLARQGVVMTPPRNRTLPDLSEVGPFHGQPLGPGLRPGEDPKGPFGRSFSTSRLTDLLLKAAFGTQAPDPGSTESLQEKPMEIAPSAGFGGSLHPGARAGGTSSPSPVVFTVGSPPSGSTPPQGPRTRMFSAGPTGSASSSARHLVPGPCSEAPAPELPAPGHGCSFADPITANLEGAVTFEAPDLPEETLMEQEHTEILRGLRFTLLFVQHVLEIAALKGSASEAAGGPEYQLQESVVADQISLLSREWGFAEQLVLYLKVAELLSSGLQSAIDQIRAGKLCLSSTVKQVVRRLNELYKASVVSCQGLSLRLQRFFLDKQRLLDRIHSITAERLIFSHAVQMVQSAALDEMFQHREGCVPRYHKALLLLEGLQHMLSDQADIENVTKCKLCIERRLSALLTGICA

[3] = biological target: Macrophage-stimulating protein receptor (Homo sapiens, UniProt Q04912)
[4] = biological target: cAMP-dependent protein kinase type II-alpha regulatory subunit (Homo sapiens, UniProt P13861)
cAMP-dependent protein kinase type II-alpha regulatory subunit, sequence (P13861 whole entry): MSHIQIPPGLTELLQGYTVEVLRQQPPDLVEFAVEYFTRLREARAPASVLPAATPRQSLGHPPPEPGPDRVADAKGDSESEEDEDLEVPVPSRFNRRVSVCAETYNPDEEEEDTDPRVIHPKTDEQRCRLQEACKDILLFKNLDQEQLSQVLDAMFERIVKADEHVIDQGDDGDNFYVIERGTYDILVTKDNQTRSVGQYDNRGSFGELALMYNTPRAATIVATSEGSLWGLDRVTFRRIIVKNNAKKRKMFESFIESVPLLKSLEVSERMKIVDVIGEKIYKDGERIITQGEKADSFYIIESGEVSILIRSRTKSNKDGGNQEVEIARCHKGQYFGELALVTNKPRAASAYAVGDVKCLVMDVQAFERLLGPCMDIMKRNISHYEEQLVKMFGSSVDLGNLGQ

Insulin receptor = Insulin receptor (Homo sapiens, UniProt P06213)
Insulin receptor, sequence (P06213 28-758 limits assumed): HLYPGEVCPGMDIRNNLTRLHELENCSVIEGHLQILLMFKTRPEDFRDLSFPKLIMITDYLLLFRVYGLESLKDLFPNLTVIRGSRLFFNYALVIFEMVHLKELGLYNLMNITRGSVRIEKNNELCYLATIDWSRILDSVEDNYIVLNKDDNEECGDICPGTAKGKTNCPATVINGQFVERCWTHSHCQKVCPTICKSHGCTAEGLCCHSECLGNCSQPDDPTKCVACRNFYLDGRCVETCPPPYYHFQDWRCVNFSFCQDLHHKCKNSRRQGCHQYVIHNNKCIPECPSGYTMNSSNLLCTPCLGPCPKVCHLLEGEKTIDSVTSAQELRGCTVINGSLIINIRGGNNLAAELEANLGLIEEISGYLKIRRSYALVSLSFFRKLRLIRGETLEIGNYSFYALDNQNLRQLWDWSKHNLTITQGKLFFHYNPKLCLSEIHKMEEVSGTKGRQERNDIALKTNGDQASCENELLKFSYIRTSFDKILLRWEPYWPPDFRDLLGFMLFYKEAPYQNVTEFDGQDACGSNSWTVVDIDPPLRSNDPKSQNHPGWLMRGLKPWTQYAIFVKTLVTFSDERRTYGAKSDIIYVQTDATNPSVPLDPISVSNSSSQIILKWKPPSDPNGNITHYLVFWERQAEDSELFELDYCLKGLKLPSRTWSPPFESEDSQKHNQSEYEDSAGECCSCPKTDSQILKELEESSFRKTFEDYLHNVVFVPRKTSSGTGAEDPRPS
Insulin receptor, sequence (P06213 763-1382 limits assumed): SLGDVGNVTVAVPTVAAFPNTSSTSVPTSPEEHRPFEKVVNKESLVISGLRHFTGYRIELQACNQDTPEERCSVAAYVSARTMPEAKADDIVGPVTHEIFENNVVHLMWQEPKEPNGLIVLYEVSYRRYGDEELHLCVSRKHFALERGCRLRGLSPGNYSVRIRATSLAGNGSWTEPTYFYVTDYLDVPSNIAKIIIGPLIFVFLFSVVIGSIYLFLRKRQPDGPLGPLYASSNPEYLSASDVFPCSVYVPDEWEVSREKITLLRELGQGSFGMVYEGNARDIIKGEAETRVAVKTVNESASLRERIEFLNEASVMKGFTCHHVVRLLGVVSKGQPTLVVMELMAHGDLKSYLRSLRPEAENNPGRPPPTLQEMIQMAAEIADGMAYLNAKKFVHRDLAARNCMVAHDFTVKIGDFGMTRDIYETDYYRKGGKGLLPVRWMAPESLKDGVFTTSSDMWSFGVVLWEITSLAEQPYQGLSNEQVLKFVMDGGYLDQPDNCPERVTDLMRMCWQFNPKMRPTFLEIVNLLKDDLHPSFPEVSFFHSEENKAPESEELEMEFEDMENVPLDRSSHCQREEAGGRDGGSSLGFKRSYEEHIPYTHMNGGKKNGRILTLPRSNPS

Glycine--tRNA ligase = biological target: T2, Glycine--tRNA ligase (Homo sapiens, UniProt P41250)
T2 sequence (P41250 whole entry): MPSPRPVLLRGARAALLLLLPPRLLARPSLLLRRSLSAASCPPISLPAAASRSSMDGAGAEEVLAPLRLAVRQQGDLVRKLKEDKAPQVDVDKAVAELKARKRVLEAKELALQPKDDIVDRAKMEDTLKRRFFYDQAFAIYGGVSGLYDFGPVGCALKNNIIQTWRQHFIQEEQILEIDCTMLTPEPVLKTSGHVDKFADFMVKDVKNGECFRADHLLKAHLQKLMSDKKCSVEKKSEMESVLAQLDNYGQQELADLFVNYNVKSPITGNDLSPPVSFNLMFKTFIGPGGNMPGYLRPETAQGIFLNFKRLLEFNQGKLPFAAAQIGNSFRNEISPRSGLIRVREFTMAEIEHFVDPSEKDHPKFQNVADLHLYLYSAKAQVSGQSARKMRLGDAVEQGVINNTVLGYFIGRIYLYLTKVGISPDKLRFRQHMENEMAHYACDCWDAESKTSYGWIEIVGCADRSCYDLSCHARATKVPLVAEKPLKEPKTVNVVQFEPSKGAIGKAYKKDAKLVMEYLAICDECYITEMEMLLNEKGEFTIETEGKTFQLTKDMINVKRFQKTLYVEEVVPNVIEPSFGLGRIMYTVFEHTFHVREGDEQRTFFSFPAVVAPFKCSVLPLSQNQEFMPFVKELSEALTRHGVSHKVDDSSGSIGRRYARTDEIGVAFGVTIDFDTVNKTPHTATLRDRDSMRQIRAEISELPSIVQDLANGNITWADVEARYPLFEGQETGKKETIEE

Ephrin type-A receptor 5 = Ephrin type-A receptor 5 (Homo sapiens, UniProt P54756)
[5] = biological target: Maternal embryonic leucine zipper kinase (Homo sapiens, UniProt Q14680)
Maternal embryonic leucine zipper kinase, sequence (Q14680 whole entry): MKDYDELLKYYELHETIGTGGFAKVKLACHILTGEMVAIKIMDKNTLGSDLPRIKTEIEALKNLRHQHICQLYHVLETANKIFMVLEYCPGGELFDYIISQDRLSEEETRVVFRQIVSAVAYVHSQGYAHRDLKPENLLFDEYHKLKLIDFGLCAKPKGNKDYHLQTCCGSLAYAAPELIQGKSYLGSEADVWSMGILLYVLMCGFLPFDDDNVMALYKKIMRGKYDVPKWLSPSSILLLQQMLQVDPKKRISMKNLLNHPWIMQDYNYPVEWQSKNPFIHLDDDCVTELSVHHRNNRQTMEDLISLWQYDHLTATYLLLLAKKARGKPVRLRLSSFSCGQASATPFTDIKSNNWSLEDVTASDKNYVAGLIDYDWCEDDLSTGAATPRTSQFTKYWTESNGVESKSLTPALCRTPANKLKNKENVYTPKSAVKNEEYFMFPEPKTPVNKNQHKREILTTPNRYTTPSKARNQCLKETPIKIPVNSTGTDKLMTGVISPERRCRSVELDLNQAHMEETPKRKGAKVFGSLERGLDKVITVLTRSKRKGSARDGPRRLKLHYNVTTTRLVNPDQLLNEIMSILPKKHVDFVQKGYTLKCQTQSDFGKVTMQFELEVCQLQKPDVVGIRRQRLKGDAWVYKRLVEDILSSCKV

[6] = biological target: Myosin light chain kinase, smooth muscle (Homo sapiens, UniProt Q15746)
[7] = biological target: T3, ATP-dependent 6-phosphofructokinase, platelet type (Homo sapiens, UniProt Q01813)
T3 sequence (Q01813 whole entry): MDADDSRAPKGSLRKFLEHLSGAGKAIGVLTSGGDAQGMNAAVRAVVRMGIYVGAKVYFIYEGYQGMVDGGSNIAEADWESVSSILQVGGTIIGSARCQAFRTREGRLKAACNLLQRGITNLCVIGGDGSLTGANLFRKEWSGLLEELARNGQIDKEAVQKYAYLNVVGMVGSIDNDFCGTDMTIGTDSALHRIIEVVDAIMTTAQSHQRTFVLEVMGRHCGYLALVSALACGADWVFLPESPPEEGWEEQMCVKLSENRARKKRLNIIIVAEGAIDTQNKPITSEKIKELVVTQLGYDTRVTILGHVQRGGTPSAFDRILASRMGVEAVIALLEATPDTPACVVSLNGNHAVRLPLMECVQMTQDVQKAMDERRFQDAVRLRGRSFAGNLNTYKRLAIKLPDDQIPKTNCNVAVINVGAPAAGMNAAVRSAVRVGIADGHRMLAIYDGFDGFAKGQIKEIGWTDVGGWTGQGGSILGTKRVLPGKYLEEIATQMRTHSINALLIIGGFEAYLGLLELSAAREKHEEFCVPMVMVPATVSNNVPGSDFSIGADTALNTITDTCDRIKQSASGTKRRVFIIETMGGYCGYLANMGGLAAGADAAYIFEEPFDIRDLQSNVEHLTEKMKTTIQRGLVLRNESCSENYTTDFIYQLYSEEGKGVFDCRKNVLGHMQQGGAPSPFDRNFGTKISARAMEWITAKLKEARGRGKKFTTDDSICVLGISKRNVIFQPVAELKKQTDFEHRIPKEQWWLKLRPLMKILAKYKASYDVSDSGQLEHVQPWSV
Further: in the data inactive means no Kd found up to 30 µM.

Activin receptor type-2B, sequence (Q13705 whole entry): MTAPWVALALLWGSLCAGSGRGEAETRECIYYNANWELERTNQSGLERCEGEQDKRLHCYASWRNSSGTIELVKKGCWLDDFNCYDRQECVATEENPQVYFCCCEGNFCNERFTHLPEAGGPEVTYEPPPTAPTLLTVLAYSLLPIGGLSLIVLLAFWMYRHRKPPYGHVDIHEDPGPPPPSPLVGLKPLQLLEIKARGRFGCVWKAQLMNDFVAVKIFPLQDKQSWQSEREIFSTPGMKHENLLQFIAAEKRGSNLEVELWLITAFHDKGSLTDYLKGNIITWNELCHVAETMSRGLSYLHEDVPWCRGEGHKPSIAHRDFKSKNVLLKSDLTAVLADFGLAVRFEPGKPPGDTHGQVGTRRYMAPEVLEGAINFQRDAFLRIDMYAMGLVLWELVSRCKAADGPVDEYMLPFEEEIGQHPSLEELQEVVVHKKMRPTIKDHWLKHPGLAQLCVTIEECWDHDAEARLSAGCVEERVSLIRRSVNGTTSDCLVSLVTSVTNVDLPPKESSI
Serine/threonine-protein kinase MRCK beta, sequence (Q9Y5S2 whole entry): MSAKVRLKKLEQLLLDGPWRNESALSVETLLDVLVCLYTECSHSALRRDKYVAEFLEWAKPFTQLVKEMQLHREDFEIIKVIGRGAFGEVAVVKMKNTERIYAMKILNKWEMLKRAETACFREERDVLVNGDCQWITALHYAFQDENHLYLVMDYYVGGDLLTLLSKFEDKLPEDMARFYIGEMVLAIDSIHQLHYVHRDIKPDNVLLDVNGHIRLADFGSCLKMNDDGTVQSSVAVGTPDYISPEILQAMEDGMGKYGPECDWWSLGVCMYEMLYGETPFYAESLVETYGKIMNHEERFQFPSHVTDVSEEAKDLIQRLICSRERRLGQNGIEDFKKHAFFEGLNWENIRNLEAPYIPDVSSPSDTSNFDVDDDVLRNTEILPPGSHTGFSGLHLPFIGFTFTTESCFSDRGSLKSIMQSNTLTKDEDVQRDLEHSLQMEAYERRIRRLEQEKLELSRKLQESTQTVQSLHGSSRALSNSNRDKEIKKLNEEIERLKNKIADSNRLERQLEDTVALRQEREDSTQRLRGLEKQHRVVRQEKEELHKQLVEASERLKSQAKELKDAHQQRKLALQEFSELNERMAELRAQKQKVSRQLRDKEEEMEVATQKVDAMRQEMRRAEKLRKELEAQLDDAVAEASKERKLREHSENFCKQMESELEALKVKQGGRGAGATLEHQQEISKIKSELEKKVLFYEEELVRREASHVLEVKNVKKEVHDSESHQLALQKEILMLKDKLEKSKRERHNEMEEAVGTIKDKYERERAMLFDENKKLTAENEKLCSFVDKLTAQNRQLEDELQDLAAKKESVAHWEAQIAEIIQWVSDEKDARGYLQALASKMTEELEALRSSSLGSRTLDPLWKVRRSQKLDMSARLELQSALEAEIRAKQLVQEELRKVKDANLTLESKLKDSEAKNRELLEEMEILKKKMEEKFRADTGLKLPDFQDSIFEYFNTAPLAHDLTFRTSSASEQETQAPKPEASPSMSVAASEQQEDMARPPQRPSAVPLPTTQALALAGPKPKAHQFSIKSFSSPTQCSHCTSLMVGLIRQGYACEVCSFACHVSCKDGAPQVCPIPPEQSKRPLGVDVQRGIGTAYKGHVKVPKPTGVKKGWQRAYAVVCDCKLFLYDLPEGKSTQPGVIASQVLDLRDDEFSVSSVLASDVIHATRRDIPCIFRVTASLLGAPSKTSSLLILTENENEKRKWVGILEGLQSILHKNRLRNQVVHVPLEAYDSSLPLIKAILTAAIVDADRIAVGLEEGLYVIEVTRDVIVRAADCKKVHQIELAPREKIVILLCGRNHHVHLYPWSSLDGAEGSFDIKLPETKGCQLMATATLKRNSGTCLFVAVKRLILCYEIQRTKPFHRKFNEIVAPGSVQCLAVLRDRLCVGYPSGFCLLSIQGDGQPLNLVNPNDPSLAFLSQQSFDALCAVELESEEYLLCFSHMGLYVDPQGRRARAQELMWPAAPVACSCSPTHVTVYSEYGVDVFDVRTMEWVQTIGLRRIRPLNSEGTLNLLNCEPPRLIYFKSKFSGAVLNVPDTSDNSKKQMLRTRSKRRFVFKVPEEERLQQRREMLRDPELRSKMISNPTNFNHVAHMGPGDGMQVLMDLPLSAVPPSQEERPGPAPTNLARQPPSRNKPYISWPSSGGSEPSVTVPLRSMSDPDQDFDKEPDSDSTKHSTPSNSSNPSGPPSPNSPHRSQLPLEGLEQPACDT

Compound | Kd [1] | Kd (Activin receptor type-2B) | Kd [2] | Kd [3] | Kd [4] | Kd (Insulin receptor) | Kd (Glycine--tRNA ligase) | Kd (Ephrin type-A receptor 5) | Kd [5] | Kd [6] | Kd [7]
O=C(Nc1ccc(OC(F)(F)F)cc1)c1sccc1NCc1ccnc2ccccc12 [OSI-930] | > 30 µM (inactive) | > 30 µM (inactive) | > 30 µM (inactive) | > 30 µM (inactive) | > 30 µM (inactive) | > 30 µM (inactive) | > 30 µM (inactive) | > 30 µM (inactive) | > 30 µM (inactive) | > 30 µM (inactive) | –
Cn1c(=O)c(F)c(Nc2ccc(I)cc2F)c2c(=O)n(C[C@@H](O)CO)cnc21 [TAK-733] | > 30 µM (inactive) | > 30 µM (inactive) | > 30 µM (inactive) | > 30 µM (inactive) | > 30 µM (inactive) | > 30 µM (inactive) | > 30 µM (inactive) | > 30 µM (inactive) | > 30 µM (inactive) | > 30 µM (inactive) | –
CC[C@@](C)(Nc1ccnc(-c2c[nH]c3ncccc23)n1)C(=O)NCC(F)(F)F [DECERNOTINIB] | 0.116 µM (active) | > 30 µM (inactive) | > 30 µM (inactive) | > 30 µM (inactive) | – | > 30 µM (inactive) | > 30 µM (inactive) | > 30 µM (inactive) | > 30 µM (inactive) | > 30 µM (inactive) | > 30 µM (inactive)
Cc1cc(-c2cc(OC(=O)c3ccccc3)ccc2Cl)cc2nnc(Nc3ccc(OCCN4CCCC4)cc3)nc12 [TG100-801] | > 30 µM (inactive) | 0.419 µM | > 30 µM (inactive) | > 30 µM (inactive) | > 30 µM (inactive) | > 30 µM (inactive) | > 30 µM (inactive) | > 30 µM (inactive) | > 30 µM (inactive) | > 30 µM (inactive) | –
N#CCNC(=O)c1ccc(-c2ccnc(Nc3ccc(N4CCOCC4)cc3)n2)cc1 [MOMELOTINIB] | – | > 30 µM (inactive) | > 30 µM (inactive) | > 30 µM (inactive) | > 30 µM (inactive) | > 30 µM (inactive) | > 30 µM (inactive) | > 30 µM (inactive) | – | > 30 µM (inactive) | > 30 µM (inactive)
CC(C)(O)CC(=O)NCCn1ccc2ncnc(Nc3ccc(Oc4cccc(C(F)(F)F)c4)c(Cl)c3)c21 [TAK-285] | > 30 µM (inactive) | > 30 µM (inactive) | – | > 30 µM (inactive) | > 30 µM (inactive) | > 30 µM (inactive) | > 30 µM (inactive) | > 30 µM (inactive) | > 30 µM (inactive) | > 30 µM (inactive) | > 30 µM (inactive)
NC[C@@](O)(c1ccc(Cl)cc1)c1ccc(-c2cn[nH]c2)cc1 [AT-13148] | > 30 µM (inactive) | > 30 µM (inactive) | – | > 30 µM (inactive) | > 30 µM (inactive) | > 30 µM (inactive) | > 30 µM (inactive) | – | > 30 µM (inactive) | > 30 µM (inactive) | > 30 µM (inactive)
C=CCN(/C=C1/C(=O)O[C@H](COC)[C@@]2(C)C1=C(O)C(=O)C1=C2[C@H](OC(C)=O)C[C@]2(C)C(=O)CC[C@@H]12)CC=C [SONOLISIB] | > 30 µM (inactive) | > 30 µM (inactive) | > 30 µM (inactive) | > 30 µM (inactive) | > 30 µM (inactive) | > 30 µM (inactive) | > 30 µM (inactive) | > 30 µM (inactive) | > 30 µM (inactive) | > 30 µM (inactive) | –
CNC(=O)c1ccc(Nc2ncc(C(F)(F)F)c(NCc3nccnc3N(C)S(C)(=O)=O)n2)cc1 [DEFACTINIB] | > 30 µM (inactive) | > 30 µM (inactive) | > 30 µM (inactive) | > 30 µM (inactive) | > 30 µM (inactive) | > 30 µM (inactive) | > 30 µM (inactive) | > 30 µM (inactive) | – | > 30 µM (inactive) | > 30 µM (inactive)
C=CC(=O)Nc1cccc(Nc2nc(Nc3ccc(N4CCN(C(C)=O)CC4)cc3OC)ncc2C(F)(F)F)c1 [ROCILETINIB] | > 30 µM (inactive) | > 30 µM (inactive) | > 30 µM (inactive) | > 30 µM (inactive) | – | > 30 µM (inactive) | > 30 µM (inactive) | > 30 µM (inactive) | > 30 µM (inactive) | > 30 µM (inactive) | > 30 µM (inactive)
NC(=O)c1ccc(N(C(N)=O)c2c(F)cccc2F)nc1-c1ccc(F)cc1F [VX-702] | > 30 µM (inactive) | – | > 30 µM (inactive) | > 30 µM (inactive) | > 30 µM (inactive) | > 30 µM (inactive) | > 30 µM (inactive) | > 30 µM (inactive) | > 30 µM (inactive) | 0.003 µM | > 30 µM (inactive)
FC(F)(F)c1ccc(CNc2ccc(Cc3c[nH]c4ncc(Cl)cc34)cn2)cn1 [PEXIDARTINIB] | > 30 µM (inactive) | > 30 µM (inactive) | > 30 µM (inactive) | > 30 µM (inactive) | > 30 µM (inactive) | > 30 µM (inactive) | > 30 µM (inactive) | > 30 µM (inactive) | > 30 µM (inactive) | > 30 µM (inactive) | –
COc1ccc2c(OCc3nnc4ccc(-c5ccccc5)nn34)ccnc2c1 [AMG-208] | > 30 µM (inactive) | > 30 µM (inactive) | > 30 µM (inactive) | > 30 µM (inactive) | > 30 µM (inactive) | > 30 µM (inactive) | > 30 µM (inactive) | > 30 µM (inactive) | > 30 µM (inactive) | > 30 µM (inactive) | –
CC1(COc2ccc3c(c2)ncn3-c2ccc3cccc(N4CCC(N)CC4)c3n2)COC1 [CRENOLANIB] | > 30 µM (inactive) | > 30 µM (inactive) | 0.839 µM (active) | > 30 µM (inactive) | > 30 µM (inactive) | > 30 µM (inactive) | – | > 30 µM (inactive) | 4.23 µM (active) | > 30 µM (inactive) | > 30 µM (inactive)

Source: ChEMBL document CHEMBL3991601, “The target landscape of clinical kinase drugs” (Science, 2017)
